Measurements from patent US7855185B2, “MN gene and protein” (Institute of Virology of the Slovak Academy of Sciences, priority 2001, dated 2010).

biological target: MN/CA IX (Homo sapiens, UniProt Q16790); test: Cell adhesion assay on immobilized purified MN/CA IX (Example 2); assay type: cell-based; conditions: not given
Description: The series of oligopeptides were tested by the cell adhesion assay procedure essentially as described above in Example 1. The synthetic oligopeptides were immobilized on hydrophobic plastic surfaces to see if they would mediate the attachment, spreading and growth of cells. Also investigated were whether the oligopeptides or antibodies inhibited attachment of cells (NIH3T3, HeLa and CGL1) to purified MN protein coated onto such plastic surfaces. The MN protein was affinity purified on agarose covalently linked to sulfonamide, as the MN protein encompasses a CA domain.
Cell adhesion assay. The conditions of the assay are basically as described in Example 1. Briefly, 1 μg/ml of purified MN/CA IX in 50 mM mono/bicarbonate buffer, pH 9.2, was adsorbed in 30 μl drops on the bottom of bacteriological 5 cm Petri dishes for 1.5 hr. Then the drops were removed by aspiration and the dishes were 3× rinsed with PBS and blocked with 50% FCS in culture medium for 30 min. There were two variants of the test. In the first one, the whole bottom of the Petri dish was blocked with 50% FCS, and the dishes were seeded with 5 ml of cell suspension (10^5 cells/ml). After overnight incubation, the cultures were rinsed with PBS, fixed and stained. In the other variant, only the area of adsorbed MN/CA IX was blocked and on top of MN/CA IX dots were added 30 μl drops of cell suspension in growth medium, containing added oligopeptides (or control without peptides). After incubation, rinsing and fixation, the cultures were stained with 0.5% Trypan blue in 50 mM Tris buffer pH 8.5 for 1 h, rinsed with water and dried. Stained areas of attached cells were extracted with 10% acetic acid, the extracts transferred to 96-well plates and absorbance was measured at 630 nm on microplate reader.

Row | Compound | activity of phage-display nonapeptides in cell adhesion inhibition
1 | ASASAPVSA [SEQ ID NO: 139] | marginally positive only in ELISA
2 | AGQTRSPLA [SEQ ID NO: 140] | inactive
3 | AKKMKRRKA [SEQ ID NO: 137] | less active
4 | AITFNAQYA [SEQ ID NO: 138] | highest activity

tested on: MAb M75; test: Competition ELISA with M75 on adsorbed GST-MN; assay type: binding, mouse; conditions: not given
Description: ELISA. Purified GST-MN [Zavada et al. (1993), supra] at concentration 10 ng/ml in carbonate buffer pH 9.2 was adsorbed for 3 h in Maxisorb strips (NUNC). After washing and blocking (1 h) with 0.05% Tween 20 in PBS, 50 μl/well of the antibody+antigen mixtures were added. […] These mixtures were adsorbed for 1.5 h, followed by washing with Tween-PBS. Bound antibody was detected by antimouse IgG conjugate with peroxidase (SwAM-Px, SEVAC, Prague), diluted 1:1000. In the color reaction OPD (o-phenylenediamine dihydrochloride, Sigma) 1 mg/ml in 0.1 M citrate buffer pH 5.0 was used. To this H2O2 was added to final concentration 0.03%. This system is balanced so as to allow assay for antigen competing for M75 as well as for peptides binding to the epitope of immobilized GST-MN.
Identification of the epitope recognized by Mab M75. Preliminary mapping of M75 epitope employing partial sequences of extracellular parts of MN/CA9 cDNA expressed from bacterial vectors and tested on Western blots located it in PG region For exact mapping, our strategy was to synthesize partially overlapping oligopeptides of 15-25 aa covering the PG domain and test them in competition ELISA with M75. According to the results, this was followed by a series of 6-12 aa oligopeptides. A major part of the PG domain consists of a 6-fold tandem repeat of 6 aa (aa 61-96) [SEQ ID NO: 97]; 4 repeats are identical (GEEDLP) [SEQ ID NO: 98] and 2 contain 2 aa exchanged (SEEDSP [SEQ ID NO: 141] and REEDPP [SEQ ID NO: 142]).

Row | Compound | serological activity in competition ELISA with M75 | concentration causing 50% inhibition in competition ELISA | fold less active than SEQ ID NOS: 104 and 106 in competition ELISA
5 | APGEEDLPA [SEQ ID NO: 125] | minimum serologically active sequence | – | –
6 | AEEDLPGA [SEQ ID NO: 132] | none of the following still shorter oligopeptides (6+2aa) competed | – | –
7 | ALPGEEDA [SEQ ID NO: 135] | none of the following still shorter oligopeptides (6+2aa) competed | – | –
8 | APGEEDLA [SEQ ID NO: 136] | none of the following still shorter oligopeptides (6+2aa) competed | – | –
9 | AEDLPGEA [SEQ ID NO: 133] | none of the following still shorter oligopeptides (6+2aa) competed | – | –
10 | DLPGEEDLPGEE [SEQ ID NO: 122] | serologically active | – | –
11 | EDPPGEEDLPGEEDLPGEEDLPEVC [SEQ ID NO: 106, aa 75-98 of the PG region, cysteine added onto the C-end] | – | 1 ng/mL | –
12 | EDLPGEEDLP [SEQ ID NO: 121] | serologically active | – | –
13 | LPGEEDLPGEED [SEQ ID NO: 123] | serologically active | – | –
14 | EVKPKSEEEGSLKLE [SEQ ID NO: 118, aa 97-111 of the PG region] | inactive | – | –
15 | GEEDLPSEEDSPREEDPPGEEDLPGEC [SEQ ID NO: 105, aa 61-85 of the PG region, cysteine added onto the C-end] | – | – | 1000 ×
16 | GEEDLPGEEDLP [SEQ ID NO: 119] | serologically active | – | –
17 | ADLPGEEA [SEQ ID NO: 134] | none of the following still shorter oligopeptides (6+2aa) competed | – | –
18 | EEDLPGEEDLPG [SEQ ID NO: 120] | serologically active | – | –
19 | AGEEDLPA [SEQ ID NO: 131] | none of the following still shorter oligopeptides (6+2aa) competed | – | –
20 | PGEEDLPGEEDL [SEQ ID NO: 124] | serologically active | – | –
21 | GGSSGEDDPLGEEDLPSEEDSPC [SEQ ID NO: 104, aa 51-72 of the PG region, cysteine added onto the C-end] | – | 1 ng/mL | –

same assay, conditions: 100 μg/ml

Row | Compound | competition in ELISA for M75
22 | AEDLPGEEA [SEQ ID NO: 128] | negative
23 | AEEDLPGEA [SEQ ID NO: 127] | negative
24 | ALPGEEDLA [SEQ ID NO: 130] | negative
25 | ADLPGEEDA [SEQ ID NO. 129] | negative

same assay, conditions: peptides of 7+2 aa

Row | Compound | activity of phage-display nonapeptides in competition ELISA
26 | ASASAPVSA [SEQ ID NO: 139] | marginally positive
27 | AGQTRSPLA [SEQ ID NO: 140] | inactive
28 | AKKMKRRKA [SEQ ID NO: 137] | less active
29 | AITFNAQYA [SEQ ID NO: 138] | highest activity

tested on: Rat2TK- cells and C33 human cervical carcinoma cells transfected with pMN-HSVtk; test: GVC sensitivity of pMN-HSVtk transfectants; assay type: cell-based; conditions: in vitro, even in low concentrations
Description: A plasmid construct in which HSVtk was cloned downstream of the MN promoter region Bd3, containing both proximal and distant regulatory elements of MN, was prepared. That plasmid pMN-HSVtk was transfected to Rat2TK-cells and C33 human cervical carcinoma cells using calcium phosphate precipitation and lipofection, respectively. Transfectants were tested for expression of HSVtk and GVC sensitivity. Analysis of the transfectants has shown the remarkable cytotoxic in vitro effect of GVC even in low concentrations (up to 95% of cells killed).

Row | Compound | cells killed
30 | Nc1nc(O)c2ncn(COC(CO)CO)c2n1 [GVC, ganciclovir] | up to 95%

tested on: NIH3T3 cells freshly transformed with the [pGD.MN+MLV] complex; test: Morphologic transformation of NIH3T3 cells by [pGD.MN+MLV] complex in the presence of acetazolamide; conditions: 10^−5M, 4 days of incubation

Row | Compound | difference between transformed cells growing in presence or absence of the drug
31 | CC(=O)Nc1nnc(S(N)(=O)=O)s1 [acetazolamide] | No difference
